“And” between values parts separate entries of the source, which are not always exact repeats. Equal values may be shown once. Inconclusive results and toxic doses are left out. No stated cut-off is given here; in the data, active means T/C of 150% or more; inactive means T/C below 125%.
Tested on: L1210 leukemia ip in BDF1 mice, survival T/C
Assay: NCI In Vivo Anticancer Drug Screen. Data for tumor model L1210 Leukemia (intraperitoneal) in B6D2F1 (BDF1) mice
Conditions: endpoint: mean survival time, higher = longer survival
Summary of the method: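 Read-out is survival time, reported as the treated-group measurement over the vehicle-control measurement.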

[1] = dose: 25.0 mg/kg/injection, schedule: Q01DX009 (ip), vehicle: Klucel (hydroxypropylcellulose) (HPC)
[2] = dose: 50.0 mg/kg/injection, schedule: Q01DX009 (ip), vehicle: Klucel (hydroxypropylcellulose) (HPC)
[3] = dose: 100.0 mg/kg/injection, schedule: Q01DX009 (ip), vehicle: Klucel (hydroxypropylcellulose) (HPC)
[4] = dose: 200.0 mg/kg/injection, schedule: Q01DX009 (ip), vehicle: Klucel (hydroxypropylcellulose) (HPC)
[5] = dose: 400.0 mg/kg/injection, schedule: Q01DX009 (ip), vehicle: Klucel (hydroxypropylcellulose) (HPC)
[6] = dose: 50.0 mg/kg/injection, schedule: Q01DX001 (ip), vehicle: saline
[7] = dose: 100.0 mg/kg/injection, schedule: Q01DX001 (ip), vehicle: other
[8] = dose: 100.0 mg/kg/injection, schedule: Q01DX001 (ip), vehicle: saline
[9] = dose: 200.0 mg/kg/injection, schedule: Q01DX001 (ip), vehicle: other
[10] = dose: 200.0 mg/kg/injection, schedule: Q01DX001 (ip), vehicle: saline
[11] = dose: 400.0 mg/kg/injection, schedule: Q01DX001 (ip), vehicle: other
[12] = dose: 400.0 mg/kg/injection, schedule: Q01DX001 (ip), vehicle: saline
[13] = dose: 50.0 mg/kg/injection, schedule: Q01DX001 (ip), vehicle: carboxymethylcellulose (CMC)
[14] = dose: 100.0 mg/kg/injection, schedule: Q01DX001 (ip), vehicle: carboxymethylcellulose (CMC)
[15] = dose: 200.0 mg/kg/injection, schedule: Q01DX001 (ip), vehicle: carboxymethylcellulose (CMC)
[16] = dose: 400.0 mg/kg/injection, schedule: Q01DX001 (ip), vehicle: carboxymethylcellulose (CMC)
[17] = dose: 100.0 mg/kg/injection, schedule: Q04DX003 (ip), vehicle: Klucel (hydroxypropylcellulose) (HPC)
[18] = dose: 200.0 mg/kg/injection, schedule: Q04DX003 (ip), vehicle: Klucel (hydroxypropylcellulose) (HPC)
[19] = dose: 400.0 mg/kg/injection, schedule: Q04DX003 (ip), vehicle: Klucel (hydroxypropylcellulose) (HPC)
[20] = dose: 100.0 mg/kg/injection, schedule: Q04DX003 (ip), vehicle: saline with Tween-80
[21] = dose: 200.0 mg/kg/injection, schedule: Q04DX003 (ip), vehicle: saline with Tween-80
[22] = dose: 400.0 mg/kg/injection, schedule: Q04DX003 (ip), vehicle: saline with Tween-80

Measured: T/C

Cc1c(C#N)c2n(c1C)CCN2
inactive: [1] 105 % of control | [2] 97 % of control | dose: 100.0 mg/kg/injection, schedule: Q01DX001 (ip), vehicle: Klucel (hydroxypropylcellulose) (HPC) 91 % of control | [3] 94 % of control

C=CC(C)(O)CCC1C(=C)CCC2C(C)(C)CCCC12C (stereo unspecified)
inactive: [3] 100 % of control | [4] 100 % of control | [5] 95 % of control

Nc1nc2c(c(=O)[nH]1)NC(CCNc1ccc(C(=O)NC(CCC(=O)O)C(=O)O)cc1)CN2 (stereo unspecified)
inactive: dose: 50.0 mg/kg/injection, schedule: Q01DX001 (ip), vehicle: other 104 % of control | [6] 113 % of control | [7] 101 % of control | [8] 116 % of control | dose: 108.0 mg/kg/injection, schedule: Q01DX009 (ip), vehicle: other 119 % of control | [9] 110 % of control | [10] 107 % of control | dose: 300.0 mg/kg/injection, schedule: Q01DX009 (ip), vehicle: other 116 % of control | [11] 110 % of control | [12] 115 % of control | dose: 500.0 mg/kg/injection, schedule: Q01DX009 (ip), vehicle: other 112 % of control

CC(=O)OC1CCC2(C)C(=CCC3C2CCC2(C)C3CC3C2C(c2ccccc2)=NN3c2ccccc2)C1 (stereo unspecified)
inactive: dose: 6.0 mg/kg/injection, schedule: Q04DX002 (ip), vehicle: Klucel (hydroxypropylcellulose) (HPC) 93 % of control | dose: 12.5 mg/kg/injection, schedule: Q04DX002 (ip), vehicle: Klucel (hydroxypropylcellulose) (HPC) 104 % of control | dose: 25.0 mg/kg/injection, schedule: Q04DX002 (ip), vehicle: Klucel (hydroxypropylcellulose) (HPC) 96 % of control | dose: 50.0 mg/kg/injection, schedule: Q04DX002 (ip), vehicle: Klucel (hydroxypropylcellulose) (HPC) 96 % of control

Cc1c([N+](=O)[O-])cc(CCn2cnc3c(=O)[nH]cnc32)cc1[N+](=O)[O-]
inactive: [13] 98 % of control | [14] 98 % of control | [15] 95 % of control | [16] 104 % of control

CS(=O)(=O)c1ccc2c(c1)-c1ccccc1C2=O
inactive: [14] 96 % of control | [15] 104 % of control | [16] 98 % of control

CCCCCCCC(=O)N1C2CN3C4=C(C(=O)C(N)=C(C)C4=O)C(COC(N)=O)C3(OC)C21 (stereo unspecified)
inactive: dose: 6.6 mg/kg/injection, schedule: Q01DX001 (ip), vehicle: acetone 115 % of control | dose: 9.9 mg/kg/injection, schedule: Q01DX001 (ip), vehicle: acetone 113 % of control

CCCCCCCN(CCCCCCC)CC(O)c1c2ccccc2cc2c1ccc1ccccc12 (stereo unspecified)
inactive: [3] 91 % of control | [17] 101 % of control | [4] 104 % of control | [18] 93 % of control | [19] 93 % of control

CCc1nc(=S)c2[nH]cnc2[nH]1
inactive: [20] 93 % of control | [21] 90 % of control | [22] 93 % of control

Cc1cc2oc(=O)c(Cl)c(Cl)c2c(C)c1Cl
inactive: dose: 10.0 mg/kg/injection, schedule: Q01DX001 (ip), vehicle: saline 105 % of control | dose: 10.0 mg/kg/injection, schedule: Q01DX009 (ip), vehicle: Klucel (hydroxypropylcellulose) (HPC) 101 % of control | dose: 10.0 mg/kg/injection, schedule: Q04DX003 (ip), vehicle: Klucel (hydroxypropylcellulose) (HPC) 86 % of control | dose: 20.0 mg/kg/injection, schedule: Q01DX001 (ip), vehicle: saline 111 % of control | dose: 20.0 mg/kg/injection, schedule: Q01DX009 (ip), vehicle: Klucel (hydroxypropylcellulose) (HPC) 101 % of control | dose: 20.0 mg/kg/injection, schedule: Q04DX003 (ip), vehicle: Klucel (hydroxypropylcellulose) (HPC) 93 % of control

Cc1c(C)c(C)c(Br)c(C)c1C
inactive: [6] 108 % of control | [8] 108 % of control | [10] 108 % of control | [12] 108 % of control

CC[Si](CC)(CC)N1CC1
inactive: dose: 12.5 mg/kg/injection, schedule: Q01DX001 (ip), vehicle: carboxymethylcellulose (CMC) 106 % of control | dose: 25.0 mg/kg/injection, schedule: Q01DX001 (ip), vehicle: carboxymethylcellulose (CMC) 92 % of control | [13] 92 % of control

C[N+](C)(CC(=O)Nc1cccc(C(F)(F)F)c1)CC(=O)Nc1cccc(C(F)(F)F)c1
inactive: dose: 12.5 mg/kg/injection, schedule: Q01DX009 (ip), vehicle: saline with Tween-80 88 % of control | dose: 25.0 mg/kg/injection, schedule: Q01DX009 (ip), vehicle: saline with Tween-80 94 % of control | dose: 50.0 mg/kg/injection, schedule: Q01DX009 (ip), vehicle: saline with Tween-80 113 % of control

O=c1/c(=C\c2ccccc2)sc2n1CCN=2
inactive: [8] 89 % of control | [10] 92 % of control | [12] 101 % of control

CC(=O)OCCN1C(=O)CN=C(c2ccccn2)c2cc(Cl)ccc21
inactive: [3] 99 % of control | [17] 100 % of control | [4] 102 % of control | [18] 101 % of control | [5] 94 % of control | [19] 97 % of control

CN=C(N)N
inactive: [20] 102 % of control | [21] 101 % of control | [22] 103 % of control

CC(CNc1ccc(Cl)cc1)(CNc1ccc(Cl)cc1)[N+](=O)[O-]
inactive: dose: 100.0 mg/kg/injection, schedule: Q04DX003 (ip), vehicle: saline 92 % of control | dose: 200.0 mg/kg/injection, schedule: Q04DX003 (ip), vehicle: saline 88 % of control | dose: 400.0 mg/kg/injection, schedule: Q04DX003 (ip), vehicle: saline 92 % of control

Cc1[nH]c2c(C)ccc(C)c2c(=O)c1Br
inactive: [7] 91 % of control | [9] 94 % of control | [11] 86 % of control

COC(=O)c1c(C(=O)N(C)C)n[nH]c1C1OCC2OC(C)(C)OC21 (stereo unspecified)
inactive: dose: 100.0 mg/kg/injection, schedule: Q01DX005 (ip), vehicle: saline 100 % of control | dose: 200.0 mg/kg/injection, schedule: Q01DX005 (ip), vehicle: saline 100 % of control

Fc1cc(F)c(F)c(Oc2c(F)c(F)c(F)c(F)c2F)c1F
inactive: [17] 100 % of control | [18] 95 % of control | [19] 93 % of control

COc1ccc2c(c1)CCCCC2=O
inactive: [13] 105 % of control | [14] 102 % of control | [15] 100 % of control | [16] 102 % of control

CCN(CC)c1ccc(NC(=S)Nc2cccc(C(F)(F)F)c2)c(C)c1
inactive: [3] 93 % of control | [4] 90 % of control

N#CCc1ccccc1C(=O)O
inactive: dose: 100.0 mg/kg/injection, schedule: Q01DX009 (ip), vehicle: gum acacia 105 % of control | dose: 100.0 mg/kg/injection, schedule: Q04DX003 (ip), vehicle: gum acacia 96 % of control | dose: 200.0 mg/kg/injection, schedule: Q01DX009 (ip), vehicle: gum acacia 94 % of control | dose: 200.0 mg/kg/injection, schedule: Q04DX003 (ip), vehicle: gum acacia 91 % of control | dose: 400.0 mg/kg/injection, schedule: Q01DX009 (ip), vehicle: gum acacia 88 % of control | dose: 400.0 mg/kg/injection, schedule: Q04DX003 (ip), vehicle: gum acacia 97 % of control

COC(=O)C[CH2][Sn]([Br])([Br])[c]1ccccc1
inactive: dose: 100.0 mg/kg/injection, schedule: Q04DX002 (ip), vehicle: saline with Tween-80 95 % of control

Cc1ccc(NC(=O)COc2cc(Cl)c(Cl)cc2Cl)cc1[N+](=O)[O-]
inactive: [1] 86 % of control | [2] 100 % of control | dose: 75.0 mg/kg/injection, schedule: Q01DX009 (ip), vehicle: Klucel (hydroxypropylcellulose) (HPC) 100 % of control and 92 % of control

C=CCSc1ccccc1Cl
inactive: [8] 100 % of control | [10] 103 % of control | [12] 103 % of control

O=Cc1ccc(/C=C2\NC(=O)NC2=O)cc1
inactive: dose: 25.0 mg/kg/injection, schedule: Q01DX009 (ip), vehicle: water 90 % of control | dose: 50.0 mg/kg/injection, schedule: Q01DX009 (ip), vehicle: water 92 % of control | dose: 100.0 mg/kg/injection, schedule: Q01DX009 (ip), vehicle: water 96 % of control | dose: 200.0 mg/kg/injection, schedule: Q01DX009 (ip), vehicle: water 93 % of control

Reference: PubChem BioAssay AID248 (DTP/NCI, 2004)
